Assay results reported in patent publication US20200138827A1, “SMALL MOLECULE MODULATORS OF HUMAN STING” (Curadev Pharma Limited, priority 2017, published 2020).

target: T1, WT/R232 STING protein (Homo sapiens, UniProt Q86WV6, H232R); assay: Luciferase reporter assay in HEK293T-hSTING-Luciferase cells, WT/R232; format: cell-based; conditions: 20 hr stimulation, read-out: R232 Activity (EC50 range)
T1 construct: host or cells: HEK293T
How it was run: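 Clonal HEK293T cells stably expressing human STING R232 plus an ISRE/ISG54-driven luciferase reporter, 5×10^5 per well, stimulated with compounds for 20 h. Secreted luciferase in supernatant measured by luminescence; […].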

T1 sequence (Q86WV6 whole entry H232R): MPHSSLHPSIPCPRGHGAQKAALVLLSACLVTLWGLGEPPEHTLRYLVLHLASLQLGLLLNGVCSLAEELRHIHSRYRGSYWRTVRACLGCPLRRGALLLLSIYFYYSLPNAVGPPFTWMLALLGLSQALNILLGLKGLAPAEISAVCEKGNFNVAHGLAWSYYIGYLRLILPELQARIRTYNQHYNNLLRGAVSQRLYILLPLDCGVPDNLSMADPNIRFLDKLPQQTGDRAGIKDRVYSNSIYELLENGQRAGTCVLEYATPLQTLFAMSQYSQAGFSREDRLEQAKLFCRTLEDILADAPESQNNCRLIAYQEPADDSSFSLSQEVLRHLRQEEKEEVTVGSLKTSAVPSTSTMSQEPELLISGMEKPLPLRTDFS

| EC50 | SMILES |
| --- | --- |
| 1 to 10 µM | O=C(NCc1ccco1)c1ccc2c(c1)N(Cc1ccc(Cl)cc1)C(=O)CS2 [Example 119, 4-(4-chlorobenzyl)-N-(furan-2-ylmethyl)-3-oxo-3,4-dihydro-2H-benzo[b-1,4]thiazine-6-carboxamide] |
| > 10 µM | Cn1cc(CNC(=O)c2ccc3c(c2)N(Cc2ccccc2)C(=O)CS3)cn1 [Example 121, 4-benzyl-N-((1-methyl-1H-pyrazol-4-yl)methyl)-3-oxo-3,4-dihydro-2H-benzo[b][1,4] thiazine-6-carboxamide] |
| 1 to 10 µM | O=C(NCc1ccc(F)cc1)c1ccc2c(c1)N(Cc1ccccc1Cl)C(=O)CS2 [Example 122, 4-(2-chlorobenzyl)-N-(4-fluorobenzyl)-3-oxo-3,4-dihydro-2H-benzo[b-1,4]thiazine-6-carboxamide] |
| > 10 µM | O=C(NCc1ccccc1Cl)c1ccc2c(c1)N(Cc1ccccc1Cl)C(=O)CS2 [Example 123, N,4-bis(2-chlorobenzyl)-3-oxo-3,4-dihydro-2H-benzo[b-1,4]thiazine-6-carboxamide] |
| > 10 µM | O=C(NCc1ccccc1Cl)c1ccc2c(c1)N(Cc1cccc(Cl)c1)C(=O)CS2 [Example 124, N-(2-chlorobenzyl)-4-(3-chlorobenzyl)-3-oxo-3,4-dihydro-2H-benzo[b-1,4]thiazine-6-carboxamide] |
| > 10 µM | CC(NC(=O)c1ccc2c(c1)N(Cc1ccc(Cl)cc1)C(=O)CS2)c1ccccc1 (stereo not drawn) [Example 125, 4-(4-chlorobenzyl)-3-oxo-N-(1-phenylethyl)-3,4-dihydro-2H-benzo[b-1,4]thiazine-6-carboxamide] |
| 1 to 10 µM | O=C(NCc1ccccc1)c1ccc2c(c1)N(Cc1c(F)cccc1Cl)C(=O)CS2 [Example 126, N-benzyl-4-(2-chloro-6-fluorobenzyl)-3-oxo-3,4-dihydro-2H-benzo[b-1,4]thiazine-6-carboxamide] |
| > 10 µM | Cc1ccc(CN2CCC(CNC(=O)c3ccc4c(c3)N(Cc3c(F)cccc3Cl)C(=O)CS4)CC2)cc1 [Example 128, 4-(2-chloro-6-fluorobenzyl)-N-((1-(4-methylbenzyl)piperidin-4-yl)methyl)-3-oxo-3,4-dihydro-2H-benzo[b][1,4]thiazine-6-carboxamide] |
| > 10 µM | O=C(NCCc1ccccc1)c1ccc2c(c1)N(Cc1c(F)cccc1Cl)C(=O)CS2 [Example 129, 4-(2-chloro-6-fluorobenzyl)-3-oxo-N-phenethyl-3,4-dihydro-2H-benzo[b-1,4]thiazine-6-carboxamide] |
| > 10 µM | O=C(NCC1CCCO1)c1ccc2c(c1)N(Cc1c(F)cccc1Cl)C(=O)CS2 (stereo not drawn) [Example 130, 4-(2-chloro-6-fluorobenzyl)-3-oxo-N-((tetrahydrofuran-2-yl)methyl)-3,4-dihydro-2H-benzo[b-1,4]thiazine-6-carboxamide] |
| > 10 µM | CC1(C)Sc2ccc(C(=O)NCc3ccco3)cc2N(Cc2ccccc2)C1=O [Example 132, 4-Benzyl-N-(furan-2-ylmethyl)-2,2-dimethyl-3-oxo-3,4-dihydro-2H-benzo[b-1,4]thiazine-6-carboxamide] |
| 1 to 10 µM | CC1Sc2ccc(C(=O)NCc3ccco3)cc2N(Cc2ccccc2)C1=O (stereo not drawn) [Example 134, 4-benzyl-N-(furan-2-ylmethyl)-2-methyl-3-oxo-3,4-dihydro-2H-benzo[b-1,4]thiazine-6-carboxamide] |
| > 10 µM | CN(C)C1Sc2ccc(C(=O)NCc3ccco3)cc2N(Cc2ccccc2F)C1=O (stereo not drawn) [Example 135, 2-(dimethylamino)-4-(2-fluorobenzyl)-N-(furan-2-ylmethyl)-3-oxo-3,4-dihydro-2H-benzo[b-1,4]thiazine-6-carboxamide] |
| > 10 µM | CCOC1Sc2ccc(C(=O)NCc3ccco3)cc2N(Cc2ccccc2F)C1=O (stereo not drawn) [Example 137, 2-ethoxy-4-(2-fluorobenzyl)-N-(furan-2-ylmethyl)-3-oxo-3,4-dihydro-2H-benzo[b-1,4]thiazine-6-carboxamide] |
| > 10 µM | CC1(CC(=O)O)Sc2ccc(C(=O)NCc3ccco3)cc2N(Cc2ccccc2F)C1=O (stereo not drawn) [Example 139, 2-(4-(2-fluorobenzyl)-6-((furan-2-ylmethyl)carbamoyl)-2-methyl-3-oxo-3,4-dihydro-2H-benzo[b-1,4]thiazin-2-yl)acetic acid] |
| 1 to 10 µM | Cc1cccc(CNC(=O)c2ccc3c(c2)N(Cc2ccccc2Cl)C(=O)C(C)S3)c1 (stereo not drawn) [Example 143, 4-(2-chlorobenzyl)-2-methyl-N-(3-methylbenzyl)-3-oxo-3,4-dihydro-2H-benzo[b-1,4]thiazine-6-carboxamide] |
| < 1 µM | CC1Sc2ccc(C(=O)NCc3c(F)cc(F)cc3F)cc2N(Cc2c(F)ccc(O)c2Cl)C1=O (stereo not drawn) [Example 155, 4-(2-chloro-6-fluoro-3-hydroxybenzyl)-2-methyl-3-oxo-N-(2,4,6-trifluorobenzyl)-3,4-dihydro-2H-benzo[b][1,4] thiazine-6-carboxamide] |

| EC50 | SMILES |
| --- | --- |
| 1 to 10 µM | N#CCC1Sc2ccc(C(=O)NCc3ccc(F)cc3F)cc2N(Cc2cc(F)cc(F)c2)C1=O (stereo not drawn) [Example 162, 2-(cyanomethyl)-N-(2,4-difluorobenzyl)-4-(3,5-difluorobenzyl)-3-oxo-3,4-dihydro-2H-benzo[b][1,4] thiazine-6-carboxamide] |
| 1 to 10 µM | Cc1cnc(CNC(=O)c2ccc3c(c2)N(Cc2cc(F)cc(F)c2)C(=O)C(C)S3)o1 (stereo not drawn) [Example 163, 4-(3,5-difluorobenzyl)-2-methyl-N-((5-methyloxazol-2-yl)methyl)-3-oxo-3,4-dihydro-2H-benzo[b][1,4] thiazine-6-carboxamide] |
| 1 to 10 µM | CC1(O)Sc2ccc(C(=O)NCc3c(F)cc(F)cc3F)cc2N(Cc2c(F)cccc2Cl)C1=O (stereo not drawn) [Example 164, 4-(2-chloro-6-fluorobenzyl)-2-hydroxy-2-methyl-3-oxo-N-(2,4,6-trifluorobenzyl)-3,4-dihydro-2H-benzo[b][1,4] thiazine-6-carboxamide] |
| > 10 µM | CC1(F)Sc2ccc(C(=O)NCc3c(F)cc(F)cc3F)cc2N(Cc2c(F)cccc2Cl)C1=O (stereo not drawn) [Example 165, 4-(2-chloro-6-fluorobenzyl)-2-fluoro-2-methyl-3-oxo-N-(2,4,6-trifluorobenzyl)-3,4-dihydro-2H-benzo[b][1,4] thiazine-6-carboxamide] |
| > 10 µM | NCCC1Sc2ccc(C(=O)NCc3ccc(F)cc3F)cc2N(Cc2cc(F)cc(F)c2)C1=O (stereo not drawn) [Example 166, 2-(2-aminoethyl)-N-(2,4-difluorobenzyl)-4-(3,5-difluorobenzyl)-3-oxo-3,4-dihydro-2H-benzo[b] [1,4]thiazine-6-carboxamide] |
| 1 to 10 µM | Cc1noc(CNC(=O)c2ccc3c(c2)N(Cc2cc(F)cc(F)c2)C(=O)C(C)S3)n1 (stereo not drawn) [Example 167, 4-(3,5-difluorobenzyl)-2-methyl-N-((3-methyl-1,2,4-oxadiazol-5-yl)methyl)-3-oxo-3,4-dihydro-2H-benzo[b][1,4] thiazine-6-carboxamide] |
| > 10 µM | CC1Sc2ccc(C(=O)NCc3cnccn3)cc2N(Cc2cc(F)cc(F)c2)C1=O (stereo not drawn) [Example 168, 4-(3,5-difluorobenzyl)-2-methyl-3-oxo-N-(pyrazin-2-ylmethyl)-3,4-dihydro-2H-benzo [b][1,4]thiazine-6-carboxamide] |
| > 10 µM | CC1Sc2ccc(C(=O)NCc3cnn(C)c3)cc2N(Cc2cc(F)cc(F)c2)C1=O (stereo not drawn) [Example 169, 4-(3,5-difluorobenzyl)-2-methyl-N-((1-methyl-1H-pyrazol-4-yl)methyl)-3-oxo-3,4-dihydro-2H-benzo[b][1,4] thiazine-6-carboxamide] |
| > 10 µM | CS(=O)(=O)NCCC1Sc2ccc(C(=O)NCc3c(F)cc(F)cc3F)cc2N(Cc2cc(F)cc(F)c2)C1=O (stereo not drawn) [Example 170, 4-(3,5-difluorobenzyl)-2-(2-(methyl-sulfonamido)ethyl)-3-oxo-N-(2,4,6-trifluorobenzyl)-3,4-dihydro-2H-benzo[b] [1,4]thiazine-6-carboxamide] |
| > 10 µM | COc1ccc(CCNC(=O)c2ccc3c(c2)N(Cc2ccccc2)C(=O)CS3)cc1OC [Example 171, 4-benzyl-N-(3,4-dimethoxy-phenethyl)-3-oxo-3,4-dihydro-2H-benzo[b][1,4] thiazine-6-carboxamide] |
| > 10 µM | CC1Sc2ccc(C(=O)NCc3ccn(C)n3)cc2N(Cc2c(F)cccc2Cl)C1=O (stereo not drawn) [Example 172, 4-(2-chloro-6-fluorobenzyl)-2-methyl-N-((1-methyl-1H-pyrazol-3-yl)methyl)-3-oxo-3,4-dihydro-2H-benzo[b] [1,4]thiazine-6-carboxamide] |
| > 10 µM | Cc1cnc(CNC(=O)c2ccc3c(c2)N(Cc2cnn(C)c2)C(=O)C(C)S3)o1 (stereo not drawn) [Example 173, 2-methyl-4-((1-methyl-1H-pyrazol-4-yl)methyl)-N-((5-methyloxazol-2-yl)methyl)-3-oxo-3,4-dihydro-2H-benzo[b][1,4] thiazine-6-carboxamide] |
| > 10 µM | CC1Sc2ccc(C(=O)NCCc3c(F)cc(F)cc3F)nc2N(Cc2cc(F)cc(F)c2)C1=O (stereo not drawn) [Example 174, 4-(3,5-difluorobenzyl)-2-methyl-3-oxo-N-(2,4,6-trifluoro-phenethyl)-3,4-dihydro-2H-pyrido[3,2-b][1,4]thiazine-6-carboxamide] |
| > 10 µM | O=C(O)CC1Sc2ccc(C(=O)NCc3ccco3)cc2N(Cc2ccccc2F)C1=O (stereo not drawn) [Example 175, 2-(4-(2-fluorobenzyl)-6-((furan-2-ylmethyl)carbamoyl)-3-oxo-3,4-dihydro-2H-benzo[b][1,4]thiazin-2-yl)acetic acid] |
| > 10 µM | NC(=O)CC1Sc2ccc(C(=O)NCc3ccc(F)cc3F)cc2N(Cc2cc(F)cc(F)c2)C1=O (stereo not drawn) [Example 176, 2-(2-amino-2-oxoethyl)-N-(2,4-difluorobenzyl)-4-(3,5-difluorobenzyl)-3-oxo-3,4-dihydro-2H-benzo[b] [1,4]thiazine-6-carboxamide] |
| > 10 µM | O=C(NCc1ccco1)c1cnc2c(c1)N(Cc1c(F)cccc1Cl)C(=O)CS2 [Example 177, 1-(2-Chloro-6-fluorobenzyl)-N-(furan-2-ylmethyl)-2-oxo-2,3-dihydro-1H-pyrido[2,3-b-1,4]thiazine-7-carboxamide] |
